Data from patent publication US20250282831A1, “NOVEL PROTEIN AND NUCLEIC ACID SEQUENCES FOR COVID-19 VACCINES” (Dompe' Farmaceutici SPA, priority 2021, published 2025).

Assays:
[1] = tested on: Osteoclasts from RAW264.7 macrophages; assay: Estrogen-like activity: TRAP activity by ELISA in osteoclasts; format: cell-based, murine; conditions: RANKL-differentiated osteoclasts; 24 h; 1 nM Estradiol or 10 ng/ml spike proteins
[2] = tested on: MCF-7 breast cancer cells; assay: BrdU proliferation assay in MCF-7 breast cancer cell line; format: cell-based; conditions: 24 hours
THP-1 = assay: Proteome profile (cytokine array) of conditioned media from differentiated THP-1 cells; format: cell-based, Human

SMILES | TRAP levels, Mean [1] | cell proliferation, Mean ([2]; peptides 10 ug/ml, spike 10 ng/ml, raloxifene 2 μM) | effect on estradiol- and spike-induced proliferation (in words) ([2]; co-treatment with raloxifene 2 μM) | effect on spike-induced IL-8 up-regulation (in words) (THP-1) | effect on CHI3L1 up-regulation (in words) (THP-1; co-treatment with spike and/or estradiol, 24 h) | effect on OPN upregulation (in words) (THP-1; co-treatment with spike, 24 h)
C[C@]12CC[C@@H]3c4ccc(O)cc4CC[C@H]3[C@@H]1CC[C@@H]2O [Estradiol] | 0.25 U/L |  |  |  |  | 
O=C(c1ccc(OCCN2CCCCC2)cc1)c1c(-c2ccc(O)cc2)sc2cc(O)ccc12 [ral, Raloxifene] |  | 109.5 percentage of control | counteracted | effective in counteracting the effect of spike | able to counteract only the effects of spike alone | able to counteract the effects of spike alone
